Assay results: patent US9863934B2, “Screening methods for cognitive enhancers” (Dart Neuroscience (Cayman) Ltd., priority 2002, dated 2018)
“Also recorded” adds a separate entry of the source.

Experiments:
[1] = test system: human CREB RNA; test: human CREB bDNA assay; format: cell-based
Description: CREB 1 and CREB 3 oligos have identical sequence homology with both mouse and human. CREB 17 has a single base mismatch.

[2] = test system: normal mice; test: memory formation in normal mice after weak or strong training (% Freezing, FIG. 1); format: in vivo
Description: FIG. 1 is a bar graph showing the results of drug-induced (partial) enhancement of memory in normal mice by rolipram, a prototypical phosphodiesterase (PDE) inhibitor. Five-day retention after weak training (2×) is lower than strong training (5×). Only memory after weak training is enhanced by bilateral hippocampal injections (1 :l) of rolipram immediately after training. Rolipram reduced the number of training sessions required to produce memory. % Freezing=% Observation time mice spent frozen/motionless.
These Active Hits were evaluated in vivo rodent models of memory formation. To do so efficiently, a new behavioral training protocol was validated, which logically was affected by upstream modulation of the CREB pathway. During initial stages of acquisition, repeated training trials lead to increased cAMP levels. At some point, cAMP levels pass a threshold, and activated PKA (catalytic subunit) is translocated to the nucleus, where it phosphorylates CREB directly or it yields a permissive state for the phosphorylation of CREB by a cofactor. In this context, phosphodiesterase (PDE) inhibitors act to increase cAMP levels beyond the threshold with fewer training trials, thereby producing more long-lasting memory with weaker training.

[3] = test system: CREB mRNA in Neuro2a cells; test: bDNA assay of CREB mRNA after transfection of CREB LNA antisense oligos (FIG. 3); format: cell-based, Mus musculus; conditions: higher concentration (0.5 :M)
Description: Detection of CREB mRNA with the bDNA Assay. Mus musculus Neuro2a cells were obtained from American Type Culture Collection (ATCC, Cat. No. CCL-131; Manassas, Va.). Cells were plated in Modified Eagle's Minimum Essential Media (Minimum essential medium (Eagle) with 2 mM L-glutamine and Earle's BSS adjusted to contain 1.5 g/L sodium bicarbonate, 0.1 mM non-essential amino acids, and 1.0 mM sodium pyruvate, 90%; fetal bovine serum, […]) in a 96-microwell format at 2×10^4 cells per well. Cells were maintained at 37 C. and 5% CO2 overnight before transfecting with CREB Locked Nucleic Acid (LNA) oligonucleotides.
Cells were transfected using Lipofectamine 2000 (hivitrogen, Carlsbad, Calif.) with modifications to the manufacturer's protocol. […]
The direct quantitation of CREB messenger RNA (mRNA) following transfection of antisense oligos, was detected using the QuantiGene Expression Kit according to the manufacturer's protocol (Bayer Corporation; Tarrytown, N.Y.). […] The luminescence of each well was measured in a Wallac Victor2 V (Perkin Elmer) plate luminometer at 45 C. […]

Compound | knocking down human CREB RNA levels [1] | number of training sessions required to produce memory [2] | memory (five-day retention, % Freezing) after weak training ([2]; weak training (2×), not strong training (5×), bilateral hippocampal injections (1 :l) immediately after training) | effect on endogenous CREB RNA levels [3]
TggCACTgTTACAgTggT (LNA modifications, as printed in the source, key not given here) [CREB17, CREB LNA antisense oligonucleotide; single base mismatch to human] | factional in knocking down human CREB RNA levels | – | – | –
COc1ccc(C2CNC(=O)C2)cc1OC1CCCC1 (stereo not drawn) [rolipram] | – | reduced | effect was established as predicted; also recorded: enhanced | –
TggTCATTTAgTTACCggTg (as printed in the source, key not given here) [CREB3] | factional in knocking down human CREB RNA levels | – | – | reduces endogenous CREB RNA levels
CCTCCgCCgCgTCACTCA (LNA modifications, as printed in the source, key not given here) [CREB1, CREB Locked Nucleic Acid (LNA) antisense oligonucleotide] | factional in knocking down human CREB RNA levels | – | – | –
